Data from patent EP0614464B1, “PEPTIDES AND ANTIBODIES FOR TREATMENT OF RHEUMATOID ARTHRITIS” (PEPTIDE THERAPEUTICS LIMITED, priority 1991, dated 1993).
Ends that are not written are not given here. Peptide text beside a SMILES is read from it.

Key:
[1] = system: alternative complement (C3) pathway; test: Inhibition of C3-activation: preventing IgA-α1AT complex from activating the alternative complement pathway, rabbit erythrocyte haemolysis read-out; assay type: biochemical, human
Protocol: Various peptides were tested for their ability to prevent the IgA-α1AT complex from activating the alternative complement (C3) pathway.
The method of measuring the capacity to activate the alternative complement pathway by the non-immune IgA-α1AT complex and the subsequent inhibition of this activation by anti-rheumatic peptides is described below.
This method was based on the method described by Riches and Stanworth, Immunology Letters, 1980, 1, 363,366, with modification to miniaturise it thus allowing the assay to be carried out on microtitre plates.
The initial observation by Platts-Mills and Ishizaka (J Immunol. (1974) 113, 348,358) that low dilutions of fresh normal human serum, from which calcium had been removed by chelation with 10mM EGTA to block the classical complement pathway, caused greater than 90% haemolysis of unsensitised rabbit erythrocytes when incubated at 37°C was employed in this assay.
The non-immune complex IgA-α1AT had been shown in the past to be the only known soluble complex to activate the alternative pathway complement and […] of the rabbit erythrocytes. This inhibition required biologically active complex.
The buffers solutions required in this assay were (a) Total lysis buffer (1% Triton100 in ultra pure water), (b) Alternative pathway complement fixation diluent (APCFD) which was:- • 83 volumes CFD, DH 7.2 (1 oxoid tablet: 100ml UPW) • 10 volumes 0.1M EGTA pH 7.2 • 7 volumes MgCl2 pH 7.2
Blood was obtained by venipuncture from a healthy human individual. The blood was allowed to clot for 1 hour at room temperature and then stored overnight at 4°C. The serum was removed and stored at -70°C in lml aliquots. For use, the serum was defrosted and 100µl of 0.1m EGTA pH 7.2 and 70µl O.lm MgCl2 pH 7.2 was added.
Rabbit red blood cells (RBC) were obtained by venipuncture of a healthy rabbit and collected into 0.1M citrate buffer pH 6.2. The RBC were washed 3 times in citrate buffer and the cells were stored in this buffer which was changed every week. It was possible to store cells in this way for 3 weeks. Peptides
The peptides were synthesised as described in Example 1 and made up in UPW to lmM. They were kept frozen at -70°C prior to use.
This was prepared as previously described in Example 2. It was kept frozen in small aliquots prior to use.
Using a round bottomed welled flexible microtitre plate 100µl neat serum (with added EGTA and MgCl2) was added to the first wells in duplicate. This was double diluted out, with APCFD to give a volume of 50µl well. 8 test wells (+ duplicates) were sufficient. 8 wells were prepared as a positive control - (100µl 1% Triton/UPW). 8 wells were prepared as a negative control - (100µl APCFD (Blank)).
50µl of APCFD was added to the test wells and 50µl of 1% rabbit RBC was added to all wells. The plate was then incubated at 37°C for 30 minutes and then centrifuged for 10 minutes at 2000 rpm.
75µl of the supernatant was carefully removed and plated onto a flat bottom welled microtitre plate. The plates were then read at 410nm interference, 690nm reference. The zero or blank value was calculated as the mean value of negative control wells and using the mean of the positive control wells, the percentage lysis for serum dilutions was calculated. In future assays the serum dilution in which lysis was approx. 80% of Rb RBC was used. This was usually in the range 1:4 - 1:6 dilution (ie. lml serum : 4ml APCFD - 6ml APCFD).
A 1:1 dilution of IgA-α1AT complex was made with twice concentrated APCFD. 100µl of this 1:1 dilution of complex was added to the first wells in duplicate. This was double diluted out with APCFD to give 50 µl per well. 50µl of the predetermined dilution of serum (see (i) above) was added to each well. Positive and negative control wells as described in (a) above and wells containing serum alone were used as controls. The plates were incubated at 37°C for 30 minutes and then centrifuged at 2000 rpm for 1 minute. […]

IgA-α1AT complex = test: HPLC analysis of in vitro dissociation of purified IgA-α1AT complex; assay type: biochemical, human; conditions: for HPLC minimum: Table 5, minimum concentration giving complex : free IgA ratio at 20% (base-line 14%), >500µM = no complex dissociation at highest concentration tested; for activity: comment in words on Tables 3-5, assay not given, fits the HPLC values; for HPLC %: Table 1
Protocol: The ability of the peptides of the invention to dissociate purified IgA-α1AT complex in vitro was tested as described below. The anti-rheumatic drug D-penicillamine and other synthetic peptides were used as controls. […] The sample was monitored at wavelength 206nm at a flow rate of 1ml/minute with phosphate buffer (0.1M) pH 7.1. […] They represent the ability of the peptides to dissociate the IgA-α1AT complex in vitro. In these experiments, the base-lines level comprises a complex : free IgA ratio of 14% . The minimum concentration of peptide taken to produce a positive dissociation effect is that which results in a complex: free IgA ratio at 20%. In the results tables, all the peptide values are expressed in µMoles.

[2] = system: alternative complement (C3) pathway; test: Inhibition of C3-activation: preventing IgA-α1AT complex from activating the alternative complement pathway, rabbit erythrocyte haemolysis read-out; assay type: biochemical, human; conditions: Table 5; minimum concentration needed to prevent C3 activation
[3] = system: mouse macrophage cell line (PU 518); test: Macrophage inhibition assay: IgA-α1AT complex-stimulated release of lysosomal enzymes; assay type: cell-based
Protocol: A mouse macrophage cell line (PU 518) was stimulated to release lysosomal enzymes by the addition of purified human IgA-α1AT complex. The degree to which this release was then inhibited by the peptides or other drugs was investigated, with the degree of inhibition being indicative of activity; the concentration of peptide or other test drugs giving 50% inhibition being recorded. Briefly the method was as follows:
25µl of peptide or drug was double diluted in […] + 10% foetal calf serum (FCS) in a sterile tissue culture 96 well plate. 25µl of IgA-α1AT complex in RPMI 1640 +10% FCS at about 0.2mg/ml was then added to all wells. 50µl of cells at a concentration of 2 x 10^6 cells/ml in RPMI 1640 + 10% FCS was then added to each well.
Control wells of cells alone and cells + IgA-α1AT complex were also prepared. The plate was then gently mixed and incubated overnight (16hr) at 37°C in a 4% CO2 atmosphere. Plates were then centrifuged at 1200 rpm for 10 minutes in a bench top centrifuge.
40µl of supernatant was then taken from each well and added to a 96 well polystyrene assay plate, to which was added 40µl of 160mM acetate buffer (pH 4.3) containing 2mM phenolphthalein-β-D-glucuronic acid. To obtain a standard curve, dilutions of phenolphthalein in acetate buffer from 100-5µg/ml were also added to separate wells in the assay plate.
The plates were then incubated at 37°C for 4 hours before 150µl of 0.2M glycine/NaOH buffer (pH 10.6) containing 0.2M NaCl was added to stop the reaction.
Plates were then shaken for 3 minutes before the optical density at 570nm was read on a plate reader, and the amount of β-D-glucuronic acid released from the cells calculated. The concentration of peptide or drug giving 50% inhibition of release was then noted.
The results for the macrophage inhibition assays are expressed as the concentration needed to prevent 50% release of β-glucoromidase.

[4] = Table 4, minimum concentration of peptide needed to prevent C3 activation
[5] = Table 4, minimum peptide concentration giving complex : free IgA ratio at 20% (base-line 14%), 90 minutes at 37°C
[6] = Table 1, minimum concentration of peptide needed to prevent C3 activation
[7] = minimum peptide concentration giving complex : free IgA ratio at 20% (base-line 14%), 90 minutes at 37°C
[8] = Table 3, minimum concentration of peptide needed to prevent C3 activation
[9] = Table 3, minimum peptide concentration giving complex : free IgA ratio at 20% (base-line 14%), 90 minutes at 37°C

HCKKGGE-NH2 [Peptide 152, HCKKGGEnh2]
C' [1, 4]: 125 µM
HPLC (IgA-α1AT complex; [5]): 10 µM

CC(=O)N[C@@H](CS)C(=O)O [N-acetyl Cysteine]
HPLC minimum (IgA-α1AT complex; 90 minutes at 37°C): 500 µM
activity (IgA-α1AT complex): relatively inactive
C' minimum [2]: 4 µM

HCKKD-NH2 [Peptide 120, HCKKDnh2]
C' [1, 4]: 62 µM
HPLC (IgA-α1AT complex; [5]): 50 µM
IC50 ([3]; Table 4; concentration needed to prevent 50% release of β-glucoromidase; 16hr incubation): 25 µM

HPCKK-NH2 [Peptide 201, HPCKKnh2]
C' [1, 6]: 3.9 µM
HPLC % (IgA-α1AT complex; [7]): 10 µM

NCCCC[C@H](NC(=O)[C@H](CCCCN)NC(=O)[C@@H](N)CS)C(N)=O [Peptide 114, CKKnh2] (H-Cys-Lys-Lys-NH2)
C' minimum ([1]; Table 2, minimum concentration of peptide needed to prevent C3 activation): >1250 µM
HPLC% minimum (IgA-α1AT complex; Table 2, minimum peptide concentration giving complex : free IgA ratio at 20% (base-line 14%), 90 minutes at 37°C): 125 µM

CC(C)(S)[C@@H](N)C(=O)O [D-Penicillamine]
HPLC minimum (IgA-α1AT complex; 90 minutes at 37°C): 250 µM
IC50 ([3]; Table 5, head prints no unit, b70 says all values of the results tables are in µMoles, concentration needed to prevent 50% release of β-glucoromidase): 500 µM
C' minimum [2]: 31 µM

NCCCC[C@H](NC(=O)[C@@H](N)CS)C(N)=O [Peptide 115, CKnh2, reference compound] (H-Cys-Lys-NH2)
HPLC minimum (IgA-α1AT complex; 90 minutes at 37°C): 500 µM
activity (IgA-α1AT complex): substantially less active

HECKK-NH2 [Peptide 204, HECKKnh2]
C' [1, 6]: <1.95 µM
HPLC % (IgA-α1AT complex; [7]): 10 µM

HYCKK-NH2 [Peptide 199, HYCKKnh2]
C' [1, 6]: 3.9 µM
HPLC % (IgA-α1AT complex; [7]): 10 µM

C[C@@H](N)C(=O)N[C@@H](Cc1c[nH]cn1)C(=O)N[C@@H](CS)C(=O)N[C@@H](CCCCN)C(=O)N[C@@H](CCCCN)C(N)=O [Peptide 205, dAHCKKnh2] (HELM PEPTIDE1{[dA].H.C.K.K.[am]}$$$$V2.0)
C' [1, 8]: 1.95 µM
HPLC (IgA-α1AT complex; [9]): 10 µM

Substance P [Peptide 36, reference compound]
C' minimum ([1]; Table 5, minimum concentration needed to prevent C3 activation): >500 µM
HPLC minimum (IgA-α1AT complex; 90 minutes at 37°C): >500 µM
IC50 ([3]; Table 5; head prints no unit, b70 says all values of the results tables are in µMoles; concentration needed to prevent 50% release of β-glucoromidase): > 500 µM

HCKKGD-NH2 [Peptide 121, HCKKGDnh2]
C' [1, 4]: 62 µM
HPLC (IgA-α1AT complex; [5]): 125 µM

NIQHCKK-NH2 [Peptide 135, NIQHCKKnh2]
C' [1, 8]: 31 µM
HPLC (IgA-α1AT complex; [9]): 10 µM

C[C@@H](NC(=O)[C@H](CCCCN)NC(=O)[C@H](CCCCN)NC(=O)[C@H](CS)NC(=O)[C@@H](N)Cc1c[nH]cn1)C(N)=O [Peptide 206, HCKKdAnh2] (HELM PEPTIDE1{H.C.K.K.[dA].[am]}$$$$V2.0)
C' [1, 4]: 31.3 µM
HPLC (IgA-α1AT complex; [5]): 50 µM

HFCKK-NH2 [Peptide 209, HFCKKnh2]
C' [1, 6]: 3.9 µM

DGGHCKK-NH2 [Peptide 118, DGGHCKKnh2]
HPLC (IgA-α1AT complex; [9]): 50 µM
